Measurements reported in patent US20260209247A1, “Substituted Tricyclic Compounds” (Lupin Limited, priority 2019, published 2026).

Legend:
[1] = biological target: T1, protein-protein interaction between hSOS1 and hKRASG12C (Homo sapiens, UniProt Q07889); assay: KRAS-SOS1 interaction assay (HTRF); assay type: binding; settings: GST-hSOS1 564-1049aa, HIS-hKRASG12C, read-out: KRAS-SOS1 Interaction inhibition IC50
T1 construct: GST-hSOS1, 564-1049aa expressed and purified in-house
T1 sequence (Q07889 564-1049): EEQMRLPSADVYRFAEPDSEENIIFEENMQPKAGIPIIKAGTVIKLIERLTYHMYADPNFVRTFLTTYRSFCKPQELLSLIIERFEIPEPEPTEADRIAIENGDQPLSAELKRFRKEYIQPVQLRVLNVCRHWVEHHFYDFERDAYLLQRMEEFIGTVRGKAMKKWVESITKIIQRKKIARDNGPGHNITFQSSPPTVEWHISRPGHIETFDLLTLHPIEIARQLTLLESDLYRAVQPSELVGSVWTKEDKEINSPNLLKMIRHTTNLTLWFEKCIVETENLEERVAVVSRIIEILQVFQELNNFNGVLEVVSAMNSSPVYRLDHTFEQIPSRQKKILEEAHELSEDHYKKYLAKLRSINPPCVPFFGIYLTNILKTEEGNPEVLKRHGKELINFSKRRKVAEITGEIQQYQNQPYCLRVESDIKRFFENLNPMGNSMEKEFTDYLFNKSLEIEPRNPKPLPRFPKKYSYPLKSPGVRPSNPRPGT
Protocol: Interaction assay was conducted to evaluate the ability of the compounds to disrupt the protein-protein interactions between hSOS1 and hKRASG12C. Inhibitory effect of compounds on GST-hSOS1, 564-1049aa expressed and purified in-house and HIS-hKRASG12C (R06-32DH, SignalChem) interaction was assessed using HTRF detection technology in biochemical assay. Compounds were pre-incubated with 10-50 nM working solution of hSOS1 per well of a 384 well plate (Perkin Elmer, Cat #6007290) for 10 min at 20° C. in the assay buffer containing 5 mM HEPES, pH 7.4, 150 mM NaCl, 10 mM EDTA, 1 mM DTT, 0.05% BSA fraction V and 0.0025% Igepal. Reaction was initiated by adding 100-300 nM working solution of hKRASG12C in assay buffer. Total assay volume was 15 μL. Reaction was continued for 30-60 min at 20° C. Then detection solution containing MAb Anti-GST-d2 (#61GSTDLA, Cisbio BioAssays) and MAb Anti-HIS-Tb (#61HISTLA, Cisbio BioAssays), all prepared in HTRF detection buffer (#61DB10RDF, Cisbio BioAssays) was added and further incubated for 30-60 min at 20° C. HTRF signal was recorded in PHERAStar microplate reader. Ratio of signal obtained at 665 nm and 620 nm was used to compute the percent inhibition of compound utilizing the following formula: […]

[2] = biological target: T2, nucleotide exchange on hKRASG12C mediated by hSOS1 (Homo sapiens, UniProt Q07889); assay: Guanine nucleotide exchange assay (GNEA, HTRF); assay type: biochemical; settings: HIS-hSOS1 564-1049aa mediated GTP loading onto GST-hKRASG12C 1-169aa, read-out: Guanine nucleotide exchange inhibition IC50
T2 construct: HIS-hSOS1, 564-1049aa mediated GTP loading onto GST-hKRASG12C; His (N); made in house
T2 sequence (Q07889 564-1049): T1 sequence (Q07889 564-1049)
Protocol: Example-154: Guanine nucleotide exchange assay (GNEA) GNEA assay was conducted to evaluate the effects of compounds on the nucleotide exchange on hKRASG12C mediated by hSOS1. Inhibitory effect of compounds on HIS-hSOS1, 564-1049aa mediated GTP loading onto GST-hKRASG12C, 1-169aa both expressed and purified in-house was assessed using HTRF detection technology in biochemical assay. Compounds were pre-incubated with hSOS1 working solution containing 10-50 nM hSOS1 and 200 nM EDA-GTP-DY-647P1 (Custom manufactured, Jena Biosciences) per well of a 384 well plate (Perkin Elmer, Cat #6007290) for 10 min at 20° C. in the assay buffer containing 10 mM HEPES, pH 7.4, 150 mM NaCl, 5 mM MgCl2, 1 mM DTT, 0.05% BSA fraction V and 0.0025% Igepal. Reaction was initiated by adding working solution of hKRASG12C containing 25-125 nM hKRASG12C and MAb Anti-GST-Tb (#61GSTTLA, Cisbio BioAssays) in assay buffer. Total assay volume was 15 μL. Reaction was continued for 30-60 min at 20° C. HTRF signal was recorded in PHERAStar microplate reader. Ratio of signal obtained at 665 nm and 620 nm was used to compute the percent inhibition of compound as follows.

[3] = tested on: pERK after EGF stimulation in DLD1 cells; assay: ERK phosphorylation assay (alphascreen pERK); assay type: cell-based; settings: Homo sapiens, DLD-1, 2 h compound, 200 ng/ml hEGF for 5 minutes, read-out: ERK phosphorylation inhibition IC50
Protocol: Compounds were tested for their ability to inhibit pERK after EGF stimulation in DLD1 cells. Cells were seeded at 0.2 million cells per well in 96 well cell binding tissue culture plate in 100 μL complete media and were allowed to settle overnight (16 to 20 h). On the following day, cells were treated with various concentrations of test compounds for 2 h followed by stimulation with 200 ng/ml hEGF (diluted in PBS) for 5 minutes. Cells were then washed once with PBS and lysed in freshly prepared lysis buffer (provided with alphascreen surefire ERK1/2 p-T202/Y204 assay kit, cat no: TGRESB10K, Perkin Elmer). Lysis was carried out in plate shaker for 10-15 mins. Lysate was transferred to […] white opti-plate (Perkin Elmer) and alphascreen for pERK was carried out as per manufacturer's instructions. Plate was read after 2 h incubation in plate shaker at […] 300 RPM, 25-28° C. The difference between the unstimulated and stimulated Vehicle control is considered as 100% ERK phosphorylation, and % inhibition of compounds is calculated accordingly.

Compound | IC50 [1] | IC50 [2] | IC50 [3]
CO[C@]1(C)C(=O)N(C)c2cc3nc(C)nc(N[C@H](C)c4cccc(C(F)(F)C(C)(C)O)c4F)c3cc21 (racemic) [Compound 96a, (S/R)-4-(((R)-1-(3-(1,1-difluoro-2-hydroxy-2-methylpropyl)-2-fluorophenyl)ethyl)amino)-6-methoxy-2,6,8-trimethyl-6,8-dihydro-7H-pyrrolo[3,2-g]quinazolin-7-one] | 11 to 25 nM | 31 to 130 nM | 1 to 200 nM
COCC1(C)C(=O)N(C)c2cc3c(N[C@H](C)c4cccc(C(F)(F)C(C)(C)O)c4F)nc(C)nc3cc21 (mixture of isomers) [Compound 98, (R&S)-4-(((R)-1-(3-(1,1-difluoro-2-hydroxy-2-methylpropyl)-2-fluorophenyl)ethyl)amino)-8-(methoxymethyl)-2,6,8-trimethyl-6,8-dihydro-7H-pyrrolo[2,3-g]quinazolin-7-one] | 11 to 25 nM | 1 to 30 nM | 1 to 200 nM
COC[C@@]1(C)C(=O)N(C)c2cc3c(N[C@H](C)c4cccc(C(F)(F)C(C)(C)O)c4F)nc(C)nc3cc21 (racemic) [Compound 98b, (S/R)-4-(((R)-1-(3-(1,1-difluoro-2-hydroxy-2-methylpropyl)-2-fluorophenyl)ethyl)amino)-8-(methoxymethyl)-2,6,8-trimethyl-6,8-dihydro-7H-pyrrolo[2,3-g]quinazolin-7-one] | 11 to 25 nM | 31 to 130 nM | 1 to 200 nM
Cc1nc(N[C@H](C)c2cccc(C(F)(F)C(C)(C)O)c2F)c2cc3c(cc2n1)C(C)C(=O)N3C (mixture of isomers) [Compound 99, (R&S)-4-(((R)-1-(3-(1,1-difluoro-2-hydroxy-2-methylpropyl)-2-fluorophenyl)ethyl)amino)-2,6,8-trimethyl-6,8-dihydro-7H-pyrrolo[2,3-g]quinazolin-7-one] | 1 to 10 nM | 1 to 30 nM | 1 to 200 nM
CCO[C@]1(C)C(=O)N(C)c2cc3c(N[C@H](C)c4cccc(C(F)(F)C(C)(C)O)c4F)nc(C)nc3cc21 (racemic) [Compound 121b, (S/R)-4-(((R)-1-(3-(1,1-difluoro-2-hydroxy-2-methylpropyl)-2-fluorophenyl)ethyl)amino)-8-ethoxy-2,6,8-trimethyl-6,8-dihydro-7H-pyrrolo[2,3-g]quinazolin-7-one] | 1 to 10 nM | 1 to 30 nM | 1 to 200 nM
CO[C@]1(C)C(=O)N(C)c2cc3c(N[C@H](C)c4cccc(C(F)(F)[C@](C)(O)CN(C)C)c4F)nc(C)nc3cc21 (racemic) [Compound 135a, (S/R)-4-(((R)-1-(3-((S/R)-3-(dimethylamino)-1,1-difluoro-2-hydroxy-2-methylpropyl)-2-fluorophenyl)ethyl)amino)-8-methoxy-2,6,8-trimethyl-6,8-dihydro-7H-pyrrolo[2,3-g]quinazolin-7-one] | 1 to 10 nM | 1 to 30 nM | 1 to 200 nM
CO[C@]1(C)C(=O)N(C)c2cc3c(N[C@H](C)c4cccc(C(F)(F)[C@@](C)(O)CN(C)C)c4F)nc(C)nc3cc21 (racemic) [Compound 135b, (S/R)-4-(((R)-1-(3-((R/S)-3-(dimethylamino)-1,1-difluoro-2-hydroxy-2-methylpropyl)-2-fluorophenyl)ethyl)amino)-8-methoxy-2,6,8-trimethyl-6,8-dihydro-7H-pyrrolo[2,3-g]quinazolin-7-one] | 1 to 10 nM | 31 to 130 nM | 1 to 200 nM
Cc1nc(N[C@H](C)c2cccc(C(F)(F)[C@@](C)(O)CO)c2F)c2cc3c(cc2n1)OC(C)(C)C(=O)N3C (single isomer, unassigned) [Compound 23a, 4-(((R/S)-1-(3-((S/R)-1,1-difluoro-2,3-dihydroxy-2-methylpropyl)-2-fluorophenyl)ethyl)amino)-2,6,8,8-tetramethyl-6H-[1,4]oxazino[3,2-g]quinazolin-7(8H)-one] | 1 to 10 nM | 1 to 30 nM | 1 to 200 nM
Cc1nc(N[C@H](C)c2cccc(C(F)(F)C(C)(C)O)c2F)c2cc3c(cc2n1)N(C)C(C)C(=O)N3C (single isomer, unassigned) [Compound 27b] | 1 to 10 nM | 1 to 30 nM | 1 to 200 nM
